Assay results taken from patent US20230167088A1, “1-PYRAZINYLPYRAZOLYL-3-OXYALKYL ACIDS AND THEIR DERIVATIVES, AND THEIR USE FOR CONTROL OF UNDESIRED PLANT GROWTH” (BAYER AKTIENGESELLSCHAFT, priority 2020, published 2023).

Tests used:
[1] = tested on: ABUTH; assay: Herbicidal post-emergence action 1b (twin sowing, 1280 g/ha); format: in vivo, Abutilon theophrasti; settings: dosage 1280 g/ha, visual rating about 3 weeks after treatment
Procedure, shortened: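 Twin-sown weeds in sandy loam, greenhouse-grown 2–3 weeks, sprayed post-emergence at one-leaf stage with WP/EC formulations plus 0.5% additive at 600 L/ha water. Damage rated visually about 3 weeks later versus untreated controls (100% = plants dead, 0% = like control).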

[2] = tested on: STEME; assay: Herbicidal pre-emergence action 2a (greenhouse pots, visual scoring); format: in vivo, Stellaria media; settings: dosage 320 g/ha, visual scoring after about 3 weeks vs untreated controls
Text: (§1) [table] a) Seeds of monocotyledonous and dicotyledonous weed plants and crop plants are placed in plastic or organic plant pots and covered with soil. The compounds of the invention, formulated in the form of wettable powders (WP) or as emulsion concentrates (EC), are then applied onto the surface of the covering soil as aqueous suspension or emulsion with addition of 0.5% additive at a water application rate of 600 1/ha (converted). After the treatment, the pots are placed in a greenhouse and kept under good growth conditions for the trial plants. After about 3 weeks, the effect of the preparations is scored visually in comparison with untreated controls as percentages. For example, 100% activity=the plants have died, 0% activity=like control plants. Tables B1 to B15 below show the effects of selected compounds of the general formula (I) according to Tables 1 and 2 on various harmful plants and an application rate corresponding to 320 g/ha and/or 80 g/ha, which were obtained by the experimental procedure mentioned above.

[3] = tested on: HORMU; assay: as above; format: in vivo, Hordeum murinum; settings: dosage 320 g/ha, visual scoring after about 3 weeks vs untreated controls
Text: as §1

[4] = tested on: HORMU; assay: Herbicidal post-emergence action 1a (greenhouse pots, visual rating); format: in vivo, Hordeum murinum; settings: rated visually about 3 weeks after treatment, 100% = plants have died, 0% = like control plants
Protocol: [table] a) Seeds of monocotyledonous and dicotyledonous weeds and crop plants are placed in sandy loam in plastic or organic plant pots, covered with soil and cultivated in a greenhouse under controlled growth conditions. 2 to 3 weeks after sowing, the test plants are treated at the one-leaf stage. The compounds of the invention, formulated in the form of wettable powders (WP) or as emulsion concentrates (EC), are then sprayed onto the green parts of the plants as aqueous suspension or emulsion with addition of 0.5% additive at a water application rate of 600 1/ha (converted). After the test plants have been kept in the greenhouse under optimum growth conditions for about 3 weeks, the activity of the preparations is rated visually in comparison to untreated controls. For example, 100% activity=the plants have died, 0% activity=like control plants. Tables A1 to A15 below show the effects of selected compounds of the general formula (I) according to Tables 1 and 2 on various harmful plants and an application rate corresponding to 320 g/ha and/or 80 g/ha, which were obtained by the experimental procedure mentioned above.

[5] = tested on: PHBPU; assay: Herbicidal pre-emergence action 2a (greenhouse pots, visual scoring); format: in vivo, Pharbitis purpurea; settings: dosage 320 g/ha, visual scoring after about 3 weeks vs untreated controls
Procedure, shortened: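 Visual scoring after roughly 3 weeks, as percent effect relative to untreated pots (0% = like control, 100% = dead). Seeds were covered with soil, then the surface received aqueous WP/EC suspension or emulsion (0.5% additive, 600 l/ha) at 320 and/or 80 g/ha.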

[6] = tested on: ABUTH; assay: as above; format: in vivo, Abutilon theophrasti; settings: dosage 320 g/ha, visual scoring after about 3 weeks vs untreated controls
Text: as §1

[7] = tested on: DIGSA; assay: Herbicidal pre-emergence action 2b (doubly sown, 1280 g/ha); format: in vivo, Digitaria sanguinalis; settings: doubly sown pots, dosage 1280 g/ha, visual scoring after about 3 weeks
Procedure, shortened: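 Pots of sandy loam doubly sown with one monocot and one dicot weed species, covered, then soil surface sprayed pre-emergence with WP or EC formulations plus 0.5% additive at 600 l/ha water. Greenhouse-grown about 3 weeks; activity scored visually as % versus untreated controls (100% = dead).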

Row | Structure (SMILES) | Post-emergence action at 1280 g/ha against ABUTH in % [1] [%] | Pre-emergence action against PHBPU in % [5] [%] | Pre-emergence action at 1280 g/ha against DIGSA in % [7] [%] | further results
1 | COC(=O)C(C)Oc1nn(-c2cnccn2)c(-c2ccnc(F)c2)c1Cl (racemic) [Example I-05] | 90 | 80 | – | Pre-emergence action against STEME in % [2]: 100%; Pre-emergence action against HORMU in % [3]: 90%; Post-emergence action against HORMU in % ([4]; Dosage 320 g/ha): 90%
2 | COC(=O)C(C)Oc1nn(-c2cnccn2)c(-c2cncc(F)c2)c1Br (racemic) [Example I-08] | – | 90 | – | Pre-emergence action against ABUTH in % [6]: 80%; Pre-emergence action against STEME in % [2]: 100%; Pre-emergence action against HORMU in % [3]: 100%; Post-emergence action against HORMU in % ([4]; Dosage 80 g/ha): 80%; Post-emergence action against HORMU in % ([4]; Dosage 320 g/ha): 90%
3 | COC(=O)C(C)Oc1nn(-c2cnccn2)c(-c2ccnc(F)c2)c1Br (racemic) [Example I-10] | – | – | – | Pre-emergence action against HORMU in % [3]: 80%; Post-emergence action against HORMU in % ([4]; Dosage 80 g/ha): 80%; Post-emergence action against HORMU in % ([4]; Dosage 320 g/ha): 80%
4 | COC(=O)C(C)Oc1nn(-c2cnccn2)c(-c2ccc(F)nc2)c1Br (racemic) [Example I-12] | – | – | – | Pre-emergence action against STEME in % [2]: 90%; Pre-emergence action against HORMU in % [3]: 90%; Post-emergence action against HORMU in % ([4]; Dosage 80 g/ha): 90%; Post-emergence action against HORMU in % ([4]; Dosage 320 g/ha): 90%
5 | COC(=O)C(C)Oc1nn(-c2cnccn2)c(-c2ccc(F)c(F)c2)c1Br (racemic) [Example I-16] | 90 | – | – | –
6 | CCOC(=O)COc1nn(-c2cnccn2)c(-c2ccccc2)c1Br [Example I-01] | – | – | – | Pre-emergence action against STEME in % [2]: 80%
7 | COC(=O)COc1nn(-c2cnccn2)c(-c2cncc(F)c2)c1Br [Example I-07] | – | 90 | – | Pre-emergence action against STEME in % [2]: 100%; Pre-emergence action against HORMU in % [3]: 90%; Post-emergence action against HORMU in % ([4]; Dosage 80 g/ha): 80%; Post-emergence action against HORMU in % ([4]; Dosage 320 g/ha): 90%
8 | COC(=O)COc1nn(-c2cnccn2)c(-c2ccc(F)nc2)c1Br [Example I-11] | 90 | 90 | 90 | –
9 | COC(=O)COc1nn(-c2cnccn2)c(-c2ccc(F)c(F)c2)c1Br [Example I-15] | – | 90 | – | –
10 | COC(=O)[C@@H](C)Oc1nn(-c2cnccn2)c(-c2cccc(F)c2)c1Br [Example I-20] | 90 | – | – | –
11 | COC(=O)[C@@H](C)Oc1nn(-c2cnccn2)c(-c2ccnc(F)c2)c1Br [Example I-34] | – | – | 100 | –
12 | COC(=O)[C@@H](C)Oc1nn(-c2cnccn2)c(-c2ccc(F)nc2)c1Cl [Example I-36] | 90 | – | 100 | –
13 | C[C@H](Oc1nn(-c2cnccn2)c(-c2cncc(F)c2)c1Br)C(=O)O [Example I-37] | 90 | – | 100 | –
14 | COC(=O)[C@@H](C)Oc1nn(-c2cnccn2)c(-c2cncc(F)c2)c1Br [Example I-39] | – | – | 100 | Pre-emergence action against ABUTH in % [6]: 90%
15 | COC(=O)[C@@H](C)Oc1nn(-c2cnccn2)c(-c2cncc(F)c2)c1C#N [Example I-40] | – | – | 100 | –
16 | COC(=O)[C@@H](C)Oc1nn(-c2cnccn2)c(-c2ccc(F)c(F)c2)c1Br [Example I-45] | 90 | – | 100 | –
17 | COC(=O)[C@@H](C)Oc1nn(-c2cnccn2)c(-c2ccc(F)c(F)c2)c1C#N [Example I-46] | 90 | – | 100 | Pre-emergence action against ABUTH in % [6]: 80%
18 | C[C@@H](Oc1nn(-c2cnccn2)c(-c2cccc(F)c2)c1Br)C(=O)O [Example I-48] | 90 | 90 | 100 | Pre-emergence action against ABUTH in % [6]: 100%
19 | CCOC(=O)COc1nn(-c2cnccn2)c(-c2ccc(F)nc2)c1Br [Example I-52, ethyl {[4-bromo-5-(6-fluoropyridin-3-yl)-1-(pyrazin-2-yl)-1H-pyrazol-3-yl]oxy}acetate] | – | 100 | 100 | –
20 | CCOC(=O)COc1nn(-c2cnccn2)c(-c2ccc(F)nc2)c1Cl [Example I-53] | 90 | – | 100 | –
